Reference: patent publication US20220289794A1, “SYNTHETIC ANTIMICROBIAL PEPTIDES” (priority 2019, published 2022)
Values after ≈ are worked out from the molar mass of the structure shown. Non-standard residues stand in square brackets, D forms with d. Residues, ends and D or L forms follow the SMILES beside them. dDip = N[C@@H](C(=O)O)C(c1ccccc1)c1ccccc1; Dip = N[C@H](C(=O)O)C(c1ccccc1)c1ccccc1; 2Nal = N[C@@H](Cc1ccc2ccccc2c1)C(=O)O; d2Nal = N[C@H](Cc1ccc2ccccc2c1)C(=O)O

Assays:
S. aureus ATCC 29213 = details: ATCC 29213
[1] = system: Pseudomonas aeruginosa (ATCC 27883); details: ATCC 27883
[2] = system: Escherichia coli (ATCC 25922); details: ATCC 25922
in vitro = details: human, fresh human red blood cells (washed), pH 7.4
[3] = system: Methicillin-resistant Staphylococcus aureus MRSA (ATCC BAA-1556); details: ATCC BAA-1556

MIC S. aureus ATCC 29213 (S. aureus ATCC 29213)	MIC P. aeruginosa ATCC 27883 [1]	MIC E. coli ATCC 25922 [2]	HC50 at 0.5 h (in vitro)	MIC MRSA ATCC BAA-1556 [3]	SMILES
3.1 µg/mL (≈ 2.36 µM)	12.5 µg/mL (≈ 9.52 µM)	6.2 µg/mL (≈ 4.72 µM)	390 µg/mL	3.1 µg/mL (≈ 2.36 µM)	N=C(N)NCCC[C@@H](N)C(=O)N[C@H](CCCNC(=N)N)C(=O)N[C@H](CCCNC(=N)N)C(=O)N[C@H](CCCNC(=N)N)C(=O)N[C@@H](C(=O)N[C@@H](C(=O)N[C@@H](C(=O)O)C(c1ccccc1)c1ccccc1)C(c1ccccc1)c1ccccc1)C(c1ccccc1)c1ccccc1 [IFX-067-1] (H-[dR][dR][dR][dR][dDip][dDip][dDip]-OH)
3.1 µg/mL (≈ 2.36 µM)	25 µg/mL (≈ 19 µM)	12.5 µg/mL (≈ 9.52 µM)	355 µg/mL	6.2 µg/mL (≈ 4.72 µM)	N=C(N)NCCC[C@@H](N)C(=O)N[C@@H](CCCNC(=N)N)C(=O)N[C@H](CCCNC(=N)N)C(=O)N[C@@H](CCCNC(=N)N)C(=O)N[C@@H](C(=O)N[C@@H](C(=O)N[C@@H](C(=O)O)C(c1ccccc1)c1ccccc1)C(c1ccccc1)c1ccccc1)C(c1ccccc1)c1ccccc1 [IFX-068-1] (H-[dR]R[dR]R[dDip][dDip][dDip]-OH)
3.1 µg/mL (≈ 2.39 µM)	12.5 µg/mL (≈ 9.66 µM)	–	340 µg/mL	1.5 µg/mL (≈ 1.16 µM)	N=C(N)NCCC[C@@H]1NC(=O)[C@@H](CCCNC(=N)N)NC(=O)[C@H](CCCNC(=N)N)NC(=O)[C@@H](C(c2ccccc2)c2ccccc2)NC(=O)[C@@H](C(c2ccccc2)c2ccccc2)NC(=O)[C@@H](C(c2ccccc2)c2ccccc2)NC(=O)[C@@H](CCCNC(=N)N)NC1=O [IFX-070, c[Arg-arg-Arg-arg-dip-dip-dip]] (cyclo(R[dR]R[dR][dDip][dDip][dDip]))
3.1 µg/mL (≈ 2.36 µM)	12.5 µg/mL (≈ 9.52 µM)	6.2 µg/mL (≈ 4.72 µM)	380 µg/mL	3.1 µg/mL (≈ 2.36 µM)	N=C(N)NCCC[C@H](NC(=O)[C@@H](CCCNC(=N)N)NC(=O)[C@@H](N)CCCNC(=N)N)C(=O)N[C@H](CCCNC(=N)N)C(=O)N[C@@H](C(=O)N[C@@H](C(=O)N[C@@H](C(=O)O)C(c1ccccc1)c1ccccc1)C(c1ccccc1)c1ccccc1)C(c1ccccc1)c1ccccc1 [IFX-070-1] (H-R[dR]R[dR][dDip][dDip][dDip]-OH)
3.1 µg/mL (≈ 2.36 µM)	12.5 µg/mL (≈ 9.52 µM)	6.2 µg/mL (≈ 4.72 µM)	470 µg/mL	6.2 µg/mL (≈ 4.72 µM)	N=C(N)NCCC[C@H](NC(=O)[C@H](CCCNC(=N)N)NC(=O)[C@@H](N)CCCNC(=N)N)C(=O)N[C@@H](CCCNC(=N)N)C(=O)N[C@@H](C(=O)N[C@@H](C(=O)N[C@@H](C(=O)O)C(c1ccccc1)c1ccccc1)C(c1ccccc1)c1ccccc1)C(c1ccccc1)c1ccccc1 [IFX-072-1] (H-RRRR[dDip][dDip][dDip]-OH)
3.1 µg/mL (≈ 2.36 µM)	12.5 µg/mL (≈ 9.52 µM)	6.2 µg/mL (≈ 4.72 µM)	410 µg/mL	6.2 µg/mL (≈ 4.72 µM)	N=C(N)NCCC[C@@H](N)C(=O)N[C@H](CCCNC(=N)N)C(=O)N[C@H](CCCNC(=N)N)C(=O)N[C@H](CCCNC(=N)N)C(=O)N[C@H](C(=O)N[C@H](C(=O)N[C@H](C(=O)O)C(c1ccccc1)c1ccccc1)C(c1ccccc1)c1ccccc1)C(c1ccccc1)c1ccccc1 [IFX-073-1] (H-[dR][dR][dR][dR][Dip][Dip][Dip]-OH)
3.1 µg/mL (≈ 2.55 µM)	12.5 µg/mL (≈ 10.3 µM)	–	400 µg/mL	1.5 µg/mL (≈ 1.23 µM)	N=C(N)NCCC[C@@H]1NC(=O)[C@@H](CCCNC(=N)N)NC(=O)[C@H](CCCNC(=N)N)NC(=O)[C@@H](Cc2ccc3ccccc3c2)NC(=O)[C@@H](Cc2ccc3ccccc3c2)NC(=O)[C@@H](Cc2ccc3ccccc3c2)NC(=O)[C@@H](CCCNC(=N)N)NC1=O [IFX-084, c[Arg-arg-Arg-arg-naI-naI-naI]] (cyclo(R[dR]R[dR][d2Nal][d2Nal][d2Nal]))
3.1 µg/mL (≈ 2.57 µM)	25 µg/mL (≈ 20.7 µM)	12.5 µg/mL (≈ 10.4 µM)	200 µg/mL	3.1 µg/mL (≈ 2.57 µM)	N=C(N)NCCC[C@@H]1NC(=O)[C@H](CCCNC(=N)N)NC(=O)[C@H](CCCNC(=N)N)NC(=O)[C@H](CCCNC(=N)N)NC(=O)[C@@H](Cc2ccc3ccccc3c2)NC(=O)[C@H](Cc2ccc3ccccc3c2)NC(=O)[C@H](Cc2c[nH]c3ccccc23)NC1=O [IFX-102, c[Arg-Arg-Arg-Arg-Trp-NaI-naI]] (cyclo([2Nal][d2Nal]RRRRW))
–	16 µg/mL (≈ 13.3 µM)	16 µg/mL (≈ 13.3 µM)	210 µg/mL	3.1 µg/mL (≈ 2.57 µM)	N=C(N)NCCC[C@@H]1NC(=O)[C@H](CCCNC(=N)N)NC(=O)[C@@H](Cc2ccc3ccccc3c2)NC(=O)[C@@H](Cc2ccc3ccccc3c2)NC(=O)[C@@H](Cc2c[nH]c3ccccc23)NC(=O)[C@@H](CCCNC(=N)N)NC(=O)[C@@H](CCCNC(=N)N)NC1=O [IFX-118, c[Arg-Arg-arg-arg-trp-naI-naI]] (cyclo(RR[dR][dR][dW][d2Nal][d2Nal]))
–	32 µg/mL (≈ 26.5 µM)	16 µg/mL (≈ 13.3 µM)	200 µg/mL	–	N=C(N)NCCC[C@@H]1NC(=O)[C@H](CCCNC(=N)N)NC(=O)[C@@H](CCCNC(=N)N)NC(=O)[C@@H](CCCNC(=N)N)NC(=O)[C@@H](Cc2ccc3ccccc3c2)NC(=O)[C@@H](Cc2ccc3ccccc3c2)NC(=O)[C@@H](Cc2c[nH]c3ccccc23)NC1=O [IFX-119, c[arg-arg-Arg-Arg-trp-naI-naI]] (cyclo([dR][dR]RR[dW][d2Nal][d2Nal]))
–	32 µg/mL (≈ 26.5 µM)	32 µg/mL (≈ 26.5 µM)	195 µg/mL	–	N=C(N)NCCC[C@@H]1NC(=O)[C@H](Cc2ccc3ccccc3c2)NC(=O)[C@H](Cc2ccc3ccccc3c2)NC(=O)[C@@H](Cc2c[nH]c3ccccc23)NC(=O)[C@@H](CCCNC(=N)N)NC(=O)[C@@H](CCCNC(=N)N)NC(=O)[C@H](CCCNC(=N)N)NC1=O [IFX-120, c[Arg-Arg-arg-arg-trp-NaI-NaI]] (cyclo(RR[dR][dR][dW][2Nal][2Nal]))
–	32 µg/mL (≈ 26.5 µM)	32 µg/mL (≈ 26.5 µM)	425 µg/mL	6.2 µg/mL (≈ 5.14 µM)	N=C(N)NCCC[C@@H]1NC(=O)[C@H](CCCNC(=N)N)NC(=O)[C@@H](CCCNC(=N)N)NC(=O)[C@@H](CCCNC(=N)N)NC(=O)[C@H](Cc2ccc3ccccc3c2)NC(=O)[C@H](Cc2ccc3ccccc3c2)NC(=O)[C@@H](Cc2c[nH]c3ccccc23)NC1=O [IFX-121, c[arg-arg-Arg-Arg-trp-NaI-NaI]] (cyclo([dR][dR]RR[dW][2Nal][2Nal]))
–	32 µg/mL (≈ 26.5 µM)	16 µg/mL (≈ 13.3 µM)	285 µg/mL	3.1 µg/mL (≈ 2.57 µM)	N=C(N)NCCC[C@H]1NC(=O)[C@@H](CCCNC(=N)N)NC(=O)[C@@H](CCCNC(=N)N)NC(=O)[C@@H](Cc2ccc3ccccc3c2)NC(=O)[C@@H](Cc2c[nH]c3ccccc23)NC(=O)[C@@H](Cc2ccc3ccccc3c2)NC(=O)[C@@H](CCCNC(=N)N)NC1=O [IFX-142, c[arg-arg-arg-arg-naI-trp-naI]] (cyclo([dR][dR][dR][dR][d2Nal][dW][d2Nal]))
